Experimental data taken from patent US9765029B2, “Pyridine compounds as sodium channel blockers” (Purdue Pharma L.P., priority 2010, dated 2017).

Test system: FCA-induced inflammation of the rat hind paw
Test: Freund's complete adjuvant (FCA) model of inflammatory pain, paw withdrawal threshold (PWT)
Assay type: in vivo
Description: Test Animals: Each experiment uses rats weighing between 200-260 g at the start of the experiment. The rats are group-housed and have free access to food and water at all times, except prior to oral administration of a test compound when food is removed for 16 hours before dosing. A control group acts as a comparison to rats treated with a compound of Formulae I-XIII. The control group is administered the carrier as used for the test compound. The volume of carrier administered to the control group is the same as the volume of carrier and test compound administered to the test group.
To assess the actions of the compounds of Formulae I-XIII on the treatment of inflammatory pain the Freund's complete adjuvant (“FCA”) model of inflammatory pain was used. […] 24 hour post injection, the animal was assessed for response to noxious mechanical stimuli by determining the paw withdrawal threshold (PWT), or to noxious thermal stimuli by determining the paw withdrawal latency (PWL), as described below. […] Responses to noxious mechanical or thermal stimuli were determined 1, 3, and 5 hours post administration (admin). […]
Sensitivity to noxious mechanical stimuli can be measured in animals using the paw pressure test to assess mechanical hyperalgesia. […] PWT is determined once for each rat at each time point. PWT can be measured only in the injured paw, or in both the injured and non-injured paw. […]

SMILES: NC(=O)[C@H](CO)NC(=O)c1cccc(-c2ccc(Oc3ccc(F)cc3)cc2)n1 [Compound 47, 6-[4-(4-fluoro-phenoxy)-phenyl]-pyridine-2-carboxylic acid ((S)-1-carbamoyl-2-hydroxy-ethyl)-amide]
- increase in PWT (10 mg/kg oral (PO), 3 h): statistically significant increase
- increase in PWT (30 mg/kg oral (PO), 1, 3 and 5 h): statistically significant increase
